Results as given in US8242280B2, “Fused ring heterocycle kinase modulators” (SGX Pharmaceuticals, Inc., priority 2007, dated 2012).

Tests used:
[1] = target: T1, unphosphorylated T315I Abl kinase domain (Mus musculus, UniProt P00520, T315I); assay: c-Abl T315I 0P bioassay (pyruvate kinase/lactate dehydrogenase coupled enzyme assay); format: biochemical; settings: zero phosphorylation state (0P), 10 μM ATP, read-out: AbI T315I 0P IC50
T1 construct: purified and unphosphorylated T315I Abl kinase domain; made in house; host or cells: E. coli BL21(DE3) (Codon+RIL or pSA0145 strain)
T1 sequence (P00520 242-493 T315I limits assumed): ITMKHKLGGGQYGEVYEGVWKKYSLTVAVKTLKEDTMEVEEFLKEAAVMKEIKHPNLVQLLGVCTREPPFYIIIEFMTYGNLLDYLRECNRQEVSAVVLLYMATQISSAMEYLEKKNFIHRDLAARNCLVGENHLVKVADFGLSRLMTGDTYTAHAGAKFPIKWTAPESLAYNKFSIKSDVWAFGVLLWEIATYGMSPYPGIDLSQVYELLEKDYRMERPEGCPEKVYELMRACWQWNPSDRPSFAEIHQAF
Source text: Although the first of these examples uses the kinase domain of a mutant form of Abl T315I (“Abl T315I KD”), the kinase assays may use various forms of mutant and wild type enzymes, including, for example, the entire protein, the kinase domain, or a portion thereof (e.g. Abl Y393F). The kinases used in the assays may also be of varying phosphorylation states. In the c-Abl example, a mutant kinase at a zero phosphorylation state was used. c-Abl Pyruvate Kinase/Lactate Dehydrogenase Coupled Enzyme Assay
In the c-Abl Pyruvate Kinase (PK)/Lactate Dehydrogenase (LDH) Coupled Assay the protein kinase dependant phosphorylation of a substrate peptide was coupled to the oxidation of NADH. The oxidation of NADH to NAD+ was detected by monitoring a decrease in absorbance at 340 nm.
Materials: Abl substrate peptide=EAIYAAPFAKKK (SEQ ID NO: 1)—OH (Biopeptide, San Diego, Calif.); pNADH (Sigma Cat#N-8129, FW=709.4); 2M MgC12; 1M HEPES buffer, pH 7.5; Phosphoenolpyruvate (PEP) (Sigma Cat#P-7002, FW=234); Lactate dehydrogenase (LDH) (Worthington Biochemical Cat#2756); Pyruvate Kinase (PK) (Sigma Cat#P-9136); ATP (Sigma Cat#A-3377, FW=551); Greiner 384-well UV star plate; and purified and unphosphorylated T315I Abl kinase domain.
Stock Solutions: 10 mM NADH (7.09 mg/ml in miliQH2O) made fresh daily; 10 mM Abl substrate peptide (13.4 mg/ml in miliQH2O) stored at −20° C.; 100 mM HEPES buffer, pH 7.5 (5 ml 1M stock+45 ml miliQH2O); 100 mM MgCl2 (5 ml 2M MgCl2+95 ml dH2O); 100 MM PEP (23.4 mg/ml in dH2O) stored at −20° C.; 10 mM ATP (5.51 mg/ml in dH2O) stored at −20° C. (diluted 50 μl into total of 10 ml miliQH2O daily=50 μM ATP working stock); 1000 U/ml PK (U/mg varies with lot) flash-frozen under liquid N2 and stored at −80° C.; and 1000 U/ml LDH (U/mg varies with lot) flash-frozen under liquid N2 and stored at −80° C.
Standard Assay Setup for 384-well format (50 μl reaction): 300 μM NADH; 10 mM MgCl2; 2 mM PEP; 45U/ml PK; 60 U/ml LDH; 200 μM Abl substrate peptide; 2.5 μl test compound (in DMSO); 2 μg/ml Abl kinase domain; 10 μM ATP; 100 mM HEPES buffer. Positive controls contained DMSO with no test compound. Negative controls contained 5 μl of 0.5M EDTA (50 mM in the assay). The dephosphorylated form of the c-Abl T315I mutant was used in the biochemical screening assays. The kinase reaction was initiated at time t=0 by the addition of ATP.
Activity was measured by following the time-dependent loss of NADH by absorbance spectroscopy at 340 nm. The linear portion of the resulting progress curve was then analyzed by linear regression to get the activity in absorbance units/time, reported as the slope of that best fit line (moles/unit time can be calculated from using molar extinction coefficient for NADH at 340 nm, 6250M^−1 cm^−1).
Data was evaluated using the equation: Z′=1−[3*(σ++σ−)/|μ+−μ−|](Zhang, et al., 1999 J Biomol Screening 4(2) 67-73), where μ denotes the mean and σ the standard deviation. The subscript designates positive or negative controls. The Z′ score for a robust screening assay should be ≧0.50. The typical threshold=μ+−3*σ+. Any value that falls below the threshold was designated a “hit”.
Dose response was analyzed using the equation: y=min+{(max−min)/(1+10^[compound]−logIC50)}, where y is the observed initial slope, max=the slope in the absence of inhibitor, min=the slope at infinite inhibitor, and the IC50 is the [compound] that corresponds to ½ the total observed amplitude (Amplitude=max−min).
To measure modulation, activation, or inhibition of Abl KD, a test compound was added to the assay at a range of concentrations. Inhibitors may inhibit Abl KD activity at an IC50 in the micromolar range, the nanomolar range, or, for example, in the subnanomolar range.
An open-reading frame for c-Abl was amplified from a Mus musculus (mouse) cDNA library prepared from freshly harvested mouse liver using a commercially available kit (invitrogen) by PCR using the following primers: […]
The c-Abl T315I KD (kinase domain) was purified as follows. […]

[2] = target: Ba/F3 cells, ABL1 WT (Homo sapiens, UniProt P00519); assay: 96-well XTT cell survival assay, Ba/F3 ABL1 WT; format: cell-based; settings: 72 hours, read-out: ABL1 WT XTT [Ba/F3] IC50
Procedure: (§1) MV4-11 and THP cells were maintained in Iscove's Modified Dulbecco's Medium supplemented with 10% fetal bovine serum (FBS) and penicillin/streptomycin, Ba/F3 cells were maintained in RPMI 1640 supplemented with 10% FBS, penicillin/streptomycin and 5 ng/ml recombinant mouse IL-3.
(§2) Compounds were tested in the following assays in duplicate.
(§3) 96-well XTT assay: Cells (e.g. BaF3 315I, M351I, or E255K cells) were grown in growth media containing various concentrations of compounds (duplicates) on a 96-well plate for 72 hours at 37° C. The starting cell number was 5000-8000 cells per well and volume was 120 μl. At the end of the 72-hour incubation, 40 μl of XTT labeling mixture (50:1 solution of sodium 3′-[1-(phenylamino-carbonyl)-3,4-tetrazolium]-bis(4-methoxy-6-nitro)benzene sulfonic acid hydrate and Electron-coupling reagent: PMS (N-methyl dibenzopyrazine methyl sulfate) were added to each well of the plate. After an additional 2-6 hours of incubation at 37° C., the absorbance reading at 405 nm with background correction at 650 nm was measured with a spectrophotometer.

[3] = target: Ba/F3 cells, ABL1 T315I (Homo sapiens, UniProt P00519, T315I, cells depend on it); assay: 96-well XTT cell survival assay, Ba/F3 ABL1 T315I; format: cell-based; settings: 72 hours, read-out: ABL1 T315I XTT [Ba/F3] IC50
Procedure: as §1, §2, §3

Structure (SMILES)	IC50 [1] [nM]	GI50 [2] [nM]	GI50 [3] [nM]
CN(C)C(=O)C(O)c1cncc(-c2cnc3[nH]cc(-c4cccc(N(C)C)c4)c3c2)c1 (stereo not drawn)	< 50	< 1000	> 1000
COc1ccc(F)cc1-c1c[nH]c2ncc(-c3cc(C(O)C(=O)N(C)C)c[n+]([O-])c3)cc12 (stereo not drawn)	< 50	> 1000	> 1000
Cc1n[nH]cc1-c1c[nH]c2ncc(-c3cncc(C(O)C(=O)N(C)C)c3)cc12 (stereo not drawn)	< 50	> 1000	> 1000
COc1ccc(-c2c[nH]c3ncc(-c4cncc(C(O)C(=O)N(C)C)c4)cc23)cc1 (stereo not drawn)	< 50	> 1000	> 1000
CN(C)C(=O)C(O)c1cncc(-c2cnc3[nH]cc(-c4ccnn4CCO)c3c2)c1 (stereo not drawn)	50 to 500	> 1000	> 1000
CN(C)C(=O)C(O)c1cncc(-c2cnc3[nH]cc(-c4ccnn4-c4ccccc4)c3c2)c1 (stereo not drawn)	< 50	< 1000	> 1000
CN(C)C(=O)C(O)c1cc(-c2cnc3[nH]cc(-c4ccccc4F)c3c2)cnc1N (stereo not drawn)	< 50	< 1000	< 1000
Cc1cccc(-c2c[nH]c3ncc(-c4cncc(C(O)C(=O)N(C)C)c4)cc23)c1 (stereo not drawn)	< 50	< 1000	< 1000
COc1ccccc1-c1c[nH]c2ncc(-c3cncc(C(O)CC(C)C)c3)cc12 (stereo not drawn)	< 50	< 1000	< 1000
Cc1ccc(-c2c[nH]c3ncc(-c4cncc(C(O)C(=O)N(C)C)c4)cc23)cc1 (stereo not drawn)	< 50	> 1000	> 1000
CC[C@H](O)[C@@H](O)c1cccc(-c2cnc3[nH]nc(-c4ccccc4OC)c3c2)c1	< 50	< 1000	< 1000
CNC(=O)C(O)c1cccc(-c2cnc3[nH]nc(-c4ccccc4OC)c3c2)c1 (stereo not drawn)	< 50	< 1000	< 1000
COc1ccccc1-c1c[nH]c2ncc(-c3cccc(C(F)C(=O)N(C)C)c3)cc12 (stereo not drawn)	< 50	> 1000	> 1000
COc1ccccc1-c1n[nH]c2ncc(-c3cccc(C(C)C(=O)N4CCC(N(C)C)CC4)c3)cc12 (stereo not drawn)	< 50	< 1000	< 1000
CN(C)C(=O)C(O)c1cncc(-c2cnc3[nH]cc(-c4ccc(Cl)cc4)c3c2)c1 (stereo not drawn)	< 50	< 1000	> 1000
COc1ccccc1-c1n[nH]c2ncc(-c3cccc(CO)c3)cc12	> 500	< 1000	< 1000
COc1ccccc1-c1c[nH]c2ncc(-c3cccc(C(N)C(=O)N(C)C)c3)cc12 (stereo not drawn)	< 50	< 1000	< 1000

Structure (SMILES)	IC50 [1] [nM]	GI50 [2] [nM]	GI50 [3] [nM]
CN(C)C(=O)C(O)c1cncc(-c2cnc3[nH]cc(-c4cccc(F)c4F)c3c2)c1 (stereo not drawn)	< 50	< 1000	< 1000
COc1ccccc1-c1n[nH]c2ncc(-c3cccc([C@H](O)[C@H](O)C(C)C)c3)cc12	< 50	< 1000	< 1000
CN(C)C(=O)C(O)c1cncc(-c2cnc3[nH]cc(-c4ccn[nH]4)c3c2)c1 (stereo not drawn)	< 50	> 1000	> 1000
CC(=O)c1ccccc1-c1c[nH]c2ncc(-c3cncc(C(O)C(=O)N(C)C)c3)cc12 (stereo not drawn)	50 to 500	> 1000	> 1000
CN(C)C(=O)C(O)c1cncc(-c2cnc3[nH]cc(-c4ccc(C#N)cc4)c3c2)c1 (stereo not drawn)	50 to 500	> 1000	> 1000
COc1ccccc1-c1n[nH]c2ncc(-c3cccc(C(O)C(=O)N(C)C4CCN(C)C4)c3)cc12 (stereo not drawn)	< 50	< 1000	< 1000
COc1ccccc1-c1n[nH]c2ncc(-c3cccc(C(C(=O)N4CCC(N(C)C)C4)N(C)C)c3)cc12 (stereo not drawn)	50 to 500	> 1000	> 1000
COc1ccccc1-c1n[nH]c2ncc(-c3cccc(C(=O)C(=O)N(C)C)c3)cc12	< 50	> 1000	> 1000
COc1ccccc1-c1c[nH]c2ncc(-c3cccc(C(N)CC(=O)N(C)C)c3)cc12 (stereo not drawn)	< 50	> 1000	> 1000
COc1ccccc1-c1c[nH]c2ncc(-c3cccc(C(O)c4ncccc4C(F)(F)F)c3)cc12 (stereo not drawn)	< 50	> 1000	> 1000
CN(C)C(=O)C(O)c1cncc(-c2cnc3[nH]cc(-c4cnc(N)s4)c3c2)c1 (stereo not drawn)	< 50	> 1000	> 1000
COc1ccccc1-c1n[nH]c2ncc(-c3cccc(C(C)O)c3)cc12 (stereo not drawn)	< 50	< 1000	< 1000
CNC(C(=O)N(C)CCN(C)C)c1cccc(-c2cnc3[nH]nc(-c4ccccc4OC)c3c2)c1 (stereo not drawn)	< 50	> 1000	> 1000
COc1ccccc1-c1c[nH]c2ncc(-c3cccc(C(N)CC(=O)N(C)CCN(C)C)c3)cc12 (stereo not drawn)	< 50	> 1000	> 1000
COc1ccccc1-c1c[nH]c2ncc(-c3cc(C(O)C(=O)N(C)C)ccn3)cc12 (stereo not drawn)	< 50	> 1000	> 1000
CN(C)C(=O)C(O)c1cncc(-c2cnc3[nH]cc(-c4cccnc4)c3c2)c1 (stereo not drawn)	50 to 500	> 1000	> 1000
COc1ccccc1-c1n[nH]c2ncc(-c3cccc(C(=O)C(=O)N4CC(O)C4)c3)cc12	< 50	> 1000	> 1000
